Key:
HeLa cells [1] = assay: Flow-cytometric analysis of cell death (Annexin V-FITC / PI); assay type: cell-based, human
Method: (§1) Cell growth inhibition was determined by an XTT-based in-vitro toxicology assay (Sigma-Aldrich) or trypan blue staining. Cells were plated at a density of 3.5×10^4 per well in a 24-well plate in DMEM containing 10% FCS. These cells were allowed to attach for 24 hours, and the media were replaced with fresh media containing either vehicle (dimethyl sulfoxide) or appropriate concentrations of test compounds. After 36 hours of incubation with either vehicle or compounds, cells were trypsinized and cell viability was determined by the trypan blue exclusion assay using a hemacytometer. For the XTT assay, cells were seeded into 96-well cell culture plates at a density of 0.6×10^4 per well. After the appropriate treatment described above, cells were incubated with 0.1 mg/ml of 2,3-bis(2-methoxy-4-nitro-5-sulfophenyl)-5-[(phenylamino)carbonyl]-2H-tetrazolium hydroxide (XTT) for 4 hours, and then cell number was determined by the absorbance at 470 nm, which is proportional to the number of cells that remained attached to the plate. GI50s were calculated as the inhibitor concentration needed for 50% of vehicle-treated cell growth. The appearance of apoptotic or necrotic cells was determined by flow cytometric analysis of cells double stained with Annexin V-FITC and propidium iodide (PI). Apoptotic and necrotic cells were distinguished on the basis of double-labeling for Annexin V-FITC (Sigma-Aldrich) and PI, a membrane-impermeable DNA stain. Floating and freshly trypsinized cells were pooled, washed twice in binding buffer, and processed following manufacturer's instructions. The fluorescence of samples were analyzed by flow cytometry (FACSCalibur®, Becton Dickinson Immunocytometry, San Jose, Calif.) using the CellQuest (BD Bioscience, Immunocytometry Systems, San Jose, Calif., USA) software.

HeLa cells [2] = assay: Soft agar colony formation; assay type: cell-based, human
Method: HeLa cell colony formation was determined by soft agar assay. Cells (2×10^3) were mixed in DMEM medium containing 0.35% agarose and varying concentrations of N4A or YN1. Then the cell mixture was added on a layer of 0.6% concentration of bottom agar in 24 well plate and allowed to grow for three weeks at 37° C. under 5% CO2. Fresh medium containing the inhibitors or vehicle (DMSO) was changed every four days. Colonies of 50 cells or more were counted after three weeks. The experiments were repeated at least five times.

HeLa and T47D cells = assay: Cell growth inhibition (XTT or trypan blue); assay type: cell-based, human; settings: for cell survival compared to unexposed cells: 25 μM
Method: (§2) HeLa and T47D cell lines were cultured in a 10% CO2 humidified atmosphere at 37° C. as exponentially growing monolayers in Dulbecco's modified Eagle's medium (DMEM) with glutamax (Invitrogen), supplemented with 10% fetal calf serum (Invitrogen) and penicillin/streptomycin (100 U/ml and 100 μg/ml). The human cervical carcinoma cell line, HeLa, was kindly provided by Dr. J. Kim (Louisiana State University) and the human breast carcinoma cell line, T47D, was obtained from the American Type Culture Collection (Manassas, Va.).
as §1, with “Apoptotic and necrotic cells were distinguished on the basis of double-labeling for Annexin V-FITC (Sigma-Aldrich) and PI, a membrane-impermeable DNA stain. Floating and freshly trypsinized cells were pooled, washed twice in binding buffer, and processed following manufacturer's instructions.” left out

human PFKFB3 [3] = target: T1, human PFKFB3 (Homo sapiens, UniProt Q16875); assay: 2-Kase assay and kinetic analysis (enzyme-coupled Fru-2,6-BP assay); assay type: biochemical; parameters: 443 amino acid residues of the full-length protein of 520 residues; 6xHis; made in house; host or cells: Escherichia coli BL21(DE3) pLysS; settings: for Inhibition (type): versus Fru-6-P
T1 sequence (Q16875 whole entry): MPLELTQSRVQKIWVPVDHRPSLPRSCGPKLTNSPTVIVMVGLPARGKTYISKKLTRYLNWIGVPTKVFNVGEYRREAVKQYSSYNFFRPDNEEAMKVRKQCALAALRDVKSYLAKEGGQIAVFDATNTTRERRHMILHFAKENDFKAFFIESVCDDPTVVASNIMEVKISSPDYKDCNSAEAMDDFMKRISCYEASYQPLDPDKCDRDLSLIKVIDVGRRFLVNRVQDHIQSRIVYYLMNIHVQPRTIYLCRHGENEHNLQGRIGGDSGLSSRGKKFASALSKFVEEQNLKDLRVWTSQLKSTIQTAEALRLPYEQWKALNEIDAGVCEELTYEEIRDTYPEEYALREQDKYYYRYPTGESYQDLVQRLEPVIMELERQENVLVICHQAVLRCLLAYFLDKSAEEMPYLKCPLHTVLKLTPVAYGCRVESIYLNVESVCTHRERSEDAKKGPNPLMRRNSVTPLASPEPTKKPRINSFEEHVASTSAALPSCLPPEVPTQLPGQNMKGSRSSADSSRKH
Method: To determine steady-state initial reaction rates, the 2-Kase reactions were performed first and the Fru-2,6-BP produced was measured by a conventional enzyme-coupled kinetics assay as described previously. The compounds, N4A and RBC2 came from the National Cancer Institute as indicated in Example 1. […] Initial rates of decrease in absorbance (Abs) at 340 nm were corrected with the rate of the control reaction in which no Fru-2,6-BP was present. Negative controls were carried out in the absence of enzyme and positive controls indicate the reaction in the presence of enzyme without inhibitor compounds. […] IC50 values were determined in quadruplicate. For the kinetic studies, concentrations of one of substrate and inhibitor were varied, and decrease in absorbance at 340 nm was measured. The inhibition patterns were analyzed using the program written by Cleland, in which Ki is the dissociation constants for the inhibitor from enzyme-inhibitor complex. For Selectivity studies, the 2-Kase assays were performed first and the F-2,6-P2 produced was measured by an enzyme coupled kinetics assay as described above. The His6-tagged PFKFB isoforms, PFKFB1, PFKFB2, and PFKFB4 were expressed in Escherichia coli C41(DE3) and purified using Ni-NTA affinity columns.

HeLa cells [4] = assay: Cellular Fru-2,6-BP level determination; assay type: cell-based, human; settings: 25 μM, 8 hour exposure
Method: HeLa cells were plated at a density of 2.5×10^5 in a 6-well plate in DMEM containing 10% FCS. The media were replaced with fresh DMEM containing either vehicle (dimethyl sulfoxide) or 25 μM of inhibitor the following day. After 0, 4, 8, 12, 24, or 48 hours of incubation with each inhibitor, media samples were collected for measuring the lactate secretion levels using a lactate oxidase-based assay kit (Sigma-Aldrich), and the lactate concentration was normalized to the total cellular protein concentration. The Fru-2,6-BP level was determined with collected cells at times of 0, 4, 8, 12, 24, or 48 hours after the treatment, using the method described previously.

PFKFB1 = target: T2, PFKFB1 (Homo sapiens, UniProt P16118); assay: 2-Kase selectivity assay on PFKFB isoforms; assay type: biochemical; settings: at twice the IC50 for PFKFB3 (N4A=6 μM, YN1=1.3 μM)
T2 construct: His6; made in house; host or cells: Escherichia coli C41(DE3)
T2 sequence (P16118 whole entry, canonical isoform): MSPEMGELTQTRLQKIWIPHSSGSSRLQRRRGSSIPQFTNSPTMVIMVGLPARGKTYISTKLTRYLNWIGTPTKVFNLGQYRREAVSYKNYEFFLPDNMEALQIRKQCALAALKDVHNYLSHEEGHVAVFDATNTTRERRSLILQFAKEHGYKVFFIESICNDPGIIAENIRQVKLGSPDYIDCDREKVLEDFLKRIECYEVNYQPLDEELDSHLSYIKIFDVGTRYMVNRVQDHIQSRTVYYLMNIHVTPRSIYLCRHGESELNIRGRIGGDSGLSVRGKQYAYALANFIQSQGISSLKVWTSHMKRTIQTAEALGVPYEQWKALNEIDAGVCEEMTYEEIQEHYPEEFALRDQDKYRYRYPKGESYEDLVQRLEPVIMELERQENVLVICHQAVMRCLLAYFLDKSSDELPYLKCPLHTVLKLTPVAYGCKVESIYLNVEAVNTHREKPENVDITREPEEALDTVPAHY
Method: (§3) To determine steady-state initial reaction rates, the 2-Kase reactions were performed first and the Fru-2,6-BP produced was measured by a conventional enzyme-coupled kinetics assay as described previously. The compounds, N4A and RBC2 came from the National Cancer Institute as indicated in Example 1. […] Initial rates of decrease in absorbance (Abs) at 340 nm were corrected with the rate of the control reaction in which no Fru-2,6-BP was present. Negative controls were carried out in the absence of enzyme and positive controls indicate the reaction in the presence of enzyme without inhibitor compounds. The percentage of Inhibitory activity was calculated according to the formula: % inhibition=100×[1−(Absnegative control−Abscompound)/(Absnegative control−Abspositive control)]. IC50 values were determined in quadruplicate. For the kinetic studies, concentrations of one of substrate and inhibitor were varied, and decrease in absorbance at 340 nm was measured. The inhibition patterns were analyzed using the program written by Cleland, in which Ki is the dissociation constants for the inhibitor from enzyme-inhibitor complex. For Selectivity studies, the 2-Kase assays were performed first and the F-2,6-P2 produced was measured by an enzyme coupled kinetics assay as described above. The His6-tagged PFKFB isoforms, PFKFB1, PFKFB2, and PFKFB4 were expressed in Escherichia coli C41(DE3) and purified using Ni-NTA affinity columns.

PFKFB2 = target: T3, PFKFB2 (Homo sapiens, UniProt O60825); assay: 2-Kase selectivity assay on PFKFB isoforms; assay type: biochemical; settings: at twice the IC50 for PFKFB3 (N4A=6 μM, YN1=1.3 μM)
T3 construct: His6; made in house; host or cells: Escherichia coli C41(DE3)
T3 sequence (O60825 whole entry, canonical isoform): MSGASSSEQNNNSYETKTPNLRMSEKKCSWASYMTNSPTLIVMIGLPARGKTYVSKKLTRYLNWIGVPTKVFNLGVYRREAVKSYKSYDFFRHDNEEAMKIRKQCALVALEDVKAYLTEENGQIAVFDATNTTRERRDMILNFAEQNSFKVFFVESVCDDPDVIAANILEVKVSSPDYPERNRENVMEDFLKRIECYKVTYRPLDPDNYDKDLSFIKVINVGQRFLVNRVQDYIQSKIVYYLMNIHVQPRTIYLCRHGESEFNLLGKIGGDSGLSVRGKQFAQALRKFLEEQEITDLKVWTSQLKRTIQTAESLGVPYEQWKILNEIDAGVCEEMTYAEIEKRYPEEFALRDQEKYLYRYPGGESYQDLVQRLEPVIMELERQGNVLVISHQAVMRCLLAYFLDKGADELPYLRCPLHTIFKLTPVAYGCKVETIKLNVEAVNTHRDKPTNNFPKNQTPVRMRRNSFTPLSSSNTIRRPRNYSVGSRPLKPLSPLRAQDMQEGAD
Method: as §3

PFKFB4 = target: T4, PFKFB4 (Homo sapiens, UniProt Q16877); assay: 2-Kase selectivity assay on PFKFB isoforms; assay type: biochemical; settings: at twice the IC50 for PFKFB3 (N4A=6 μM, YN1=1.3 μM)
T4 construct: His6; made in house; host or cells: Escherichia coli C41(DE3)
T4 sequence (Q16877 whole entry, canonical isoform): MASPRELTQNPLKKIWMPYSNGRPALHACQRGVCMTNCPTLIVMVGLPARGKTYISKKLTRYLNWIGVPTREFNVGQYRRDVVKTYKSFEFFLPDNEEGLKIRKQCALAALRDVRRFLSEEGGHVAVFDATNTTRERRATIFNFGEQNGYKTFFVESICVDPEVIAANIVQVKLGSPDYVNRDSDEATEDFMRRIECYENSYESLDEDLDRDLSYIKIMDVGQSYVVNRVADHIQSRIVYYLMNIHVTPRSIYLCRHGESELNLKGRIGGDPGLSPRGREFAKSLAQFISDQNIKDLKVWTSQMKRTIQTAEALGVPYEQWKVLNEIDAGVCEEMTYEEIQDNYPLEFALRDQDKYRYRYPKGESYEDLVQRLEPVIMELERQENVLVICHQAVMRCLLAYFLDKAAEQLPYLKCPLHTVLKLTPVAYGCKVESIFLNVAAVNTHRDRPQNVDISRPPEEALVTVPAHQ
Method: as §3

T47D = assay: Cell growth inhibition; assay type: cell-based; settings: Homo sapiens
Method: as §2
Cell growth inhibition was determined by an XTT-based in-vitro toxicology assay (Sigma-Aldrich) or trypan blue staining. […] After 36 hours of incubation with either vehicle or compounds, cells were trypsinized and cell viability was determined by the trypan blue exclusion assay using a hemacytometer. […] After the appropriate treatment described above, cells were incubated with 0.1 mg/ml of 2,3-bis(2-methoxy-4-nitro-5-sulfophenyl)-5-[(phenylamino)carbonyl]-2H-tetrazolium hydroxide (XTT) for 4 hours, and then cell number was determined by the absorbance at 470 nm, which is proportional to the number of cells that remained attached to the plate. […] The appearance of apoptotic or necrotic cells was determined by flow cytometric analysis of cells double stained with Annexin V-FITC and propidium iodide (PI). […]

human PFKFB3 [5] = target: T1, human PFKFB3; assay: Biochemical throughput screening of NCI Diversity Set II and steady-state inhibition kinetics; parameters: 443 amino acid residues of the full-length protein of 520 residues; 6xHis; made in house; settings: against F-6-P and ATP
Method: To generate a framework of actives and non-actives for virtual screening, a throughput study of 1,364 NCI compounds was carried out. The inhibition extent of 10 μM of each compound, in substrate saturation conditions, was quantified and the results of the top 50 compounds are shown in FIG. 1. An arbitrary cutoff was chosen at 75% inhibition to describe compounds that were to be considered ‘potential’ actives. Based on this cutoff, 10 compounds were identified from the original 1,364.
To select the true positives, the 10 potential actives were subsequently tested for specificity for the F-6-P site, because the virtual screening was targeted for the F-6-P site. Using conventional steady state inhibition kinetics, 6 compounds were selected as the ‘true actives’ (T-actives), and these six compounds are shown in FIG. 3.
The recombinant human PFKFB3 was expressed and purified as previously described.[20] The 1,364 individual compounds of NCI's Diversity Set II were acquired from the NCI.
The 2-kinase activity assay for throughput screening was performed using a F-2,6-P2 assay modified for 96-well plates from the conventional method.[21] […] The reactions of seconds step were started by adding 0.5 mM sodium pyrophosphate (PPi) and were then measured for changes in absorbance at 340 nm over a period of 30 minutes. […]

MCF7 = assay: Cell growth inhibition; assay type: cell-based; settings: Homo sapiens
Method: as §1, with “Apoptotic and necrotic cells were distinguished on the basis of double-labeling for Annexin V-FITC (Sigma-Aldrich) and PI, a membrane-impermeable DNA stain. Floating and freshly trypsinized cells were pooled, washed twice in binding buffer, and processed following manufacturer's instructions. The fluorescence of samples were analyzed by flow cytometry (FACSCalibur®, Becton Dickinson Immunocytometry, San Jose, Calif.) using the CellQuest (BD Bioscience, Immunocytometry Systems, San Jose, Calif., USA) software.” left out

Row | Structure (SMILES) | type of cell death at low concentration (HeLa cells [1]; 25 μM) | type of cell death induced (HeLa cells [1]; 25 μM and 50 μM) | type of cell death at higher concentration (HeLa cells [1]; 50 μM) | inhibition at 25 µM (HeLa cells [2]; Homo sapiens, 504 h, soft agar, 25 μM, 3 weeks, read-out: colony formation inhibited) | effect on colony formation (HeLa cells [2]; soft agar, 25, 50 and 100 μM) | cell survival compared to unexposed cells (HeLa and T47D cells) | inhibition at 10 µM (human PFKFB3 [3]; 10 μM, substrate-saturating conditions, not affected by 0.1% Tween-20) | IC50 (human PFKFB3 [3]; PFKFB3 2-kinase activity) | Ki (human PFKFB3 [3]; competitive against Fru-6-P) | Inhibition (type) (human PFKFB3 [3]) | reduction of Fru-2,6-BP (ratio to control) (HeLa cells [4]) | percent inhibition of PFKFB1 (PFKFB1) | percent inhibition of PFKFB2 (PFKFB2) | percent inhibition of PFKFB4 (PFKFB4) | GI50 (T47D) | inhibition pattern (human PFKFB3 [5]) | GI50 (MCF7) | GI50 (HeLa and T47D cells; Homo sapiens, 36 h, cell line not stated in Table 1 (HeLa and T47D tested))
1 | O=c1cc(-c2ccc(O)cc2)oc2c(O)c(O)c(O)c(O)c12 [Compound N4A, 5,6,7,8-tetrahydroxy-2-(4-hydroxyphenyl)chromene-4-one] | cells were found to be prone to apoptosis | induced both apoptotic and necrotic cell death | death by necrosis was significantly increased | 64% | significantly inhibited colony formation | significant reduction in cell survival | > 65% | 2.97 ± 0.16 µM | 1.29 ± 0.26 µM | competitive inhibitor against Fru-6-P | approximately 20% | less than 50% | less than 50% | less than 50% | – | – | – | –
2 | CCOC(=O)C=C(C)Sc1cc(O)c2ccccc2c1O (stereo in doubt) [RBC2, (Z)-ethyl 3-((1,4-dihydroxynaphthalen-2-yl)thio)but-2-enoate] | – | – | – | – | – | – | – | – | – | Competitive | – | – | – | – | 3.5 µM | competitive inhibition | 4.4 µM | –
3 | CCOC(=O)c1cc2ccc(O)cc2oc1=O [YZ9, ethyl 7-hydroxy-2-oxochromene-3-carboxylate] | – | – | – | – | – | significant reduction in cell survival | – | – | – | – | – | – | – | – | – | – | – | 2.7 µM

From US9492418B2, “Inhibitors of PFKFB3 for cancer therapy” (Board of Supervisors of Louisiana State University And …, priority 2011, dated 2016)
